Source: patent US8772286B2, “MK2 inhibitors” (Merck Sharp & Dohme B.V., priority 2009, dated 2014)
≈ marks a conversion by molar mass, not a printed value. Read-outs that look alike come from different tables or passages of the source.

Key:
[1] = biological target: T1, MK2 enzyme (Homo sapiens, UniProt P49137); experiment: MK2 enzyme activity, IMAP fluorescence polarization assay; format: biochemical; conditions: MK2 IMAP assay
T1 construct: MK2 enzyme (active enzyme (peptide 46-end (Millipore))); purchased Millipore
T1 sequence (P49137 46-400 limits assumed): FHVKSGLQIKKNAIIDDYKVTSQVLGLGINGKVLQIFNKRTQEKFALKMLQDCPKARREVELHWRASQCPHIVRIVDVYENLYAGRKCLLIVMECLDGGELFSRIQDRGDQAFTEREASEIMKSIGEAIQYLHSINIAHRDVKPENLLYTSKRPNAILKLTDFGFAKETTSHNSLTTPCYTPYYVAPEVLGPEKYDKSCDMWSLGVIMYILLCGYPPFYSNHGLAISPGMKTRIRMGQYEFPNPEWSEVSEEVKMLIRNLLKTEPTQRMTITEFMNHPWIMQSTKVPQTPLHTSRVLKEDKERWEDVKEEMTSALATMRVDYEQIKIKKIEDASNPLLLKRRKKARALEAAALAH
Description: In another assay the MK2 kinase activity can be determined by using an IMAP assay (Immobilized Metal Assay for Phosphochemicals—based coupled assay). IMAP is a homogeneous fluorescence polarization (FP) assay based on affinity capture of phosphorylated peptide substrates. IMAP uses fluorescein-labeled peptide substrates that, upon phosphorylation by a protein kinase, bind to so called IMAP nanoparticles, which are derivatized with trivalent metal complexes. […] In such an assay, MK2 phosphorylates a fluorescein-labeled peptide substrate (see example 14).
MK2 enzyme activity is measured using the IMAP (immobilized metal ion affinity-based fluorescence polarization) assay as outlined below.
The enzyme is diluted to 100 U/mL the day before use in KR buffer (10 mM Tris-HCl, 10 mM MgCl2, 0.01% Tween-20, 0.05% NaN3, 2 mM DTT, pH 7.2) and stored overnight at −20° C.
The dilutions in DMSO are then diluted 50-fold in KR-buffer of which 5 μl is used in the assay, leading to a final compound concentration range in the assay from 10 μM to 0.316 nM.
After 60 min incubation at room temperature in the dark the FP signal is read. Fluorescence at 535 nm is measured using parallel and perpendicular filters to determine differences in rotation due to binding of the phosphorylated substrate peptide to the beads. Values are calculated as percentage of the difference in readout (ΔmPi) of the controls with and without ATP. EC50 values are determined by curve fitting of the experimental results using Activity Base.

[2] = Solubility determination of MK2 inhibitors (kinetic aqueous solubility, UPLC); format: physicochemical; conditions: aqueous buffer (system solution from pION inc.), 22 °C, pH 7.4, aqueous buffer, kinetic from dmso stock
Procedure: The solubility can be determined using the Automated Kinetic Aqueous Solubility (AKASol) method, which is an HPLC-UV based method. The method is derived from the classical saturated shake-flask solubility method which has been adapted to the 96-well microtitre plate format, allowing the use of DMSO stock solutions. The solubility is determined by measuring the amount of compound in a saturated aqueous solution, quantified by an external calibration curve of the compound dissolved in DMSO. The solubility (mg/L) is measured at pH 7.4, at room temperature and the final concentration of DMSO in the sample solution is 1%.
The samples were prepared from 10 mM DMSO stock solutions. For each compound under investigation, a volume (9 μL) of the DMSO stock solution is transferred from the DMSO stock solution into 891 μL of buffer solution (system solution from pION inc.) in a 96 deep well plate, which equates to approximately 1% DMSO, using the Packard Multiprobe II robot liquid handling system. The pH of the buffer is manually adjusted at pH 7.4 by adding NaOH. This procedure is done in duplicate for each sample. After shaking for 24 h on a vortex mixer (Heidolph, Titramax 101) at 450 rpm and at room temperature (21-23° C.), 300 uL of the incubated sample is transferred from the deep well plate to a filter plate (PVDF, 0.45 um) on a vacuum manifold. To the filtrate (150 uL) 1-propanol (50 uL) is added to suppress precipitation and this solution is then analysed by UPLC. The solubility is determined using the calibration line previously prepared.
Preparation of the Standards and Built up of a Calibration Line
The calibration line is built with different concentrations of the test compound (standards), prepared from the same 10 mM DMSO stock solution. A volume (7 uL) from the same DMSO stock solution was diluted with DMSO (273 uL) leading to a solution with concentration of 0.25 mM. From this solution, three different injection volumes (0.2, 1, 1.8 uL) were injected on UPLC. The respective peak areas are plotted against amount of compound to build up the calibration line. The calibration line is used to determine the amount of dissolved compound in each sample, selecting the injection that gave peak areas closest to the peak area range of the calibration standards.

[3] = 1 μM ATP, 30 min pre-incubation, 2 h room temperature, read-out: pEC50 value (converted)
[4] = pH 7.4, room temperature, about 1% DMSO, 24 h shaking, read-out: solubility

| EC50 [1, 3] [nM] | solubility at 24 h [2, 4] [mg/L] | SMILES | also measured |
| --- | --- | --- | --- |
| 3.16 to 31.6 | ≥ 50 | CC(C)(C)c1ccc(-c2nccc(-c3cc4c([nH]3)C3(CCNCC3)CNC4=O)n2)cc1 [1—22, 2′-(2-(4-tert-butylphenyl)pyrimidin-4-yl)-5′,6′-dihydrospiro[piperidine-4,7′-pyrrolo[3,2-c]pyridin]-4′(1′H)-one] | – |
| 3.16 to 31.6 | ≥ 50 | O=C1NCC2(CCNCC2)c2[nH]c(-c3ccnc(-c4ccc5c(c4)OCCCO5)n3)cc21 [1—11, 2′-(2-(3,4-dihydro-2H-benzo[b][1,4]dioxepin-7-yl)pyrimidin-4-yl)-5′,6′-dihydrospiro[piperidine-4,7′-pyrrolo[3,2-c]pyridin]-4′(1′H)-one] | – |
| 3.16 to 31.6 | ≥ 50 | O=C1NCC2(CCNCC2)c2[nH]c(-c3ccnc(-c4cc5ccccc5s4)n3)cc21 [1—28, 2′-(2-(benzo[b]thiophen-2-yl)pyrimidin-4-yl)-5′,6′-dihydrospiro[piperidine-4,7′-pyrrolo[3,2-c]pyridin]-4′(1′H)-one] | – |
| 3.16 to 31.6 | ≥ 50 | O=C1NCC2(CCNC2)c2[nH]c(-c3ccnc(-c4cc5ccccc5o4)c3)cc21 (stereo not drawn) [6—5, 2′-(2-(benzofuran-2-yl)pyridin-4-yl)-5′,6′-dihydrospiro[pyrrolidine-3,7′-pyrrolo[3,2-c]pyridin]-4′(1′H)-one] | – |
| 3.16 to 31.6 | ≥ 50 | O=C1NCC2(CCNCC2)c2[nH]c(-c3ccnc(-c4ccc(Oc5ccccc5)cc4)n3)cc21 [1—15, 2′-(2-(4-phenoxyphenyl)pyrimidin-4-yl)-5′,6′-dihydrospiro[piperidine-4,7′-pyrrolo[3,2-c]pyridin]-4′(1′H)-one] | – |
| 3.16 to 31.6 | ≥ 50 | O=C1NCC2(CCNCC2)c2[nH]c(-c3ccnc(-c4ccc(Cl)cc4F)n3)cc21 [1—32, 2′-(2-(4-chloro-2-fluorophenyl)pyrimidin-4-yl)-5′,6′-dihydrospiro[piperidine-4,7′-pyrrolo[3,2-c]pyridin]-4′(1′H)-one] | – |
| 3.16 to 31.6 | ≥ 50 | O=C1NCC2(CCNCC2)c2[nH]c(-c3nc(-c4ccc(Cl)cc4F)ncc3F)cc21 [4—5, 2′-(2-(4-chloro-2-fluorophenyl)-5-fluoropyrimidin-4-yl)-5′,6′-dihydrospiro[piperidine-4,7′-pyrrolo[3,2-c]pyridin]-4′(1′H)-one] | – |
| – | – | O=C1NCC2(CCNCC2)c2[nH]c(-c3ccnc(-c4cccc(F)c4)n3)cc21 [16_3 Formula (I)] | EC50 ([1]; Table 1, compound of Formula (I) with spiro ring, read-out: pEC50, Formula (I) (converted)): 7.94 nM; solubility at 24 h ([2]; Table 1, compound of Formula (I) with spiro ring, pH 7.4, read-out: Solubility pH 7.4 (mg/L), Formula (I)): 36 mg/L |
| – | – | O=C1NCCc2[nH]c(-c3ccnc(-c4ccc5c(c4)OCO5)n3)cc21 [16_5 Formula (XV)] | EC50 ([1]; Table 1, comparison compound of Formula (XV) without spiro ring, read-out: pEC50, Formula (XV) (converted)): 126 nM; solubility at 24 h ([2]; Table 1, comparison compound of Formula (XV) without spiro ring, pH 7.4, read-out: Solubility pH 7.4 (mg/L), Formula (XV)): 5 mg/L |
| 3.16 to 31.6 | 20 to 50 (≈ 49.6 to 124 µM) | O=C1NCC2(CCNCC2)c2[nH]c(-c3ccnc(-c4ccc5c(c4)OCO5)n3)cc21 [1—7, 2′-(2-(benzo[d][1,3]dioxol-5-yl)pyrimidin-4-yl)-5′,6′-dihydrospiro[piperidine-4,7′-pyrrolo[3,2-c]pyridin]-4′(1′H)-one] | – |
| 3.16 to 31.6 | ≥ 50 | CCC(=O)Nc1ccc(-c2nccc(-c3cc4c([nH]3)C3(CCNCC3)CNC4=O)n2)cn1 [1—9, N-(5-(4-(4′-oxo-1′,4′,5′,6′-tetrahydrospiro[piperidine-4,7′-pyrrolo[3,2-c]pyridine]-2′-yl)pyrimidin-2-yl)pyridin-2-yl)propionamide] | – |
| 3.16 to 31.6 | 20 to 50 (≈ 49.8 to 125 µM) | CC(=O)c1ccc(-c2nccc(-c3cc4c([nH]3)C3(CCNCC3)CNC4=O)n2)cc1 [1—6, 2′-(2-(4-acetylphenyl)pyrimidin-4-yl)-5′,6′-dihydrospiro[piperidine-4,7′-pyrrolo[3,2-c]pyridin]-4′(1′H)-one] | – |
| 31.6 to 316 | ≥ 50 | NCC(=O)N1CCC2(CC1)CNC(=O)c1cc(-c3ccnc(-c4cc5ccccc5o4)n3)[nH]c12 [10—1, 1-(2-aminoacetyl)-2′-(2-(benzofuran-2-yl)pyrimidin-4-yl)-5′,6′-dihydrospiro[piperidine-4,7′-pyrrolo[3,2-c]pyridin]-4′(1′H)-one] | – |
| 31.6 to 316 | 20 to 50 (≈ 42.5 to 106 µM) | O=C(Nc1nccc(-c2cc3c([nH]2)C2(CCCNC2)CNC3=O)n1)c1ccc(C(F)(F)F)cc1 (stereo not drawn) [Example 13—1, N-(4-(4′-oxo-1′,4′,5′,6′-tetrahydrospiro[piperidine-3,7′-pyrrolo[3,2-c]pyridine]-2′-yl)pyrimidin-2-yl)-4-(trifluoromethyl)benzamide] | – |
| ≤ 3.16 | ≥ 50 | O=C1NCC2(CCNCC2)c2[nH]c(-c3ccnc(-c4ccc5c(c4)OCO5)c3)cc21 [8—3, 2′-(2-(benzo[d][1,3]dioxol-5-yl)pyridin-4-yl)-5′,6′-dihydrospiro[piperidine-4,7′-pyrrolo[3,2-c]pyridin]-4′(1′H)-one] | – |
| ≤ 3.16 | ≥ 50 | Cc1ccc(C(=O)Nc2cc(-c3cc4c([nH]3)C3(CCNCC3)CNC4=O)ccn2)cc1C [12—2, 3,4-dimethyl-N-(4-(4′-oxo-1′,4′,5′,6′-tetrahydrospiro[piperidine-4,7′-pyrrolo[3,2-c]pyridine]-2′-yl)pyridin-2-yl)benzamide] | – |
| 3.16 to 31.6 | ≥ 50 | O=C1NCC2(CCNC2)c2[nH]c(-c3ccnc(-c4ccc5c(c4)OCO5)n3)cc21 (stereo not drawn) [6—2, 2′-(2-(benzo[d][1,3]dioxol-5-yl)pyrimidin-4-yl)-5′,6′-dihydrospiro[pyrrolidine-3,7′-pyrrolo[3,2-c]pyridin]-4′(1′H)-one] | – |
| – | – | O=C1NCC2(CCOCC2)c2[nH]c(-c3ccnc(-c4ccc5c(c4)OCO5)n3)cc21 [17_1 Formula (XVI)] | EC50 ([1]; Table 2, comparison compound of Formula (XVI), spiro ring without amine, read-out: pEC50, Formula (XVI) (converted)): 794 nM; solubility at 24 h ([2]; Table 2, comparison compound of Formula (XVI), spiro ring without amine, pH 7.4, read-out: Solubility pH 7.4 (mg/L), Formula (XVI)): 2 mg/L |
| 31.6 to 316 | ≥ 50 | O=C1NCC2(CNCCO2)c2[nH]c(-c3ccnc(-c4cc5ccccc5o4)n3)cc21 (stereo not drawn) [7—1, 2′-(2-(benzofuran-2-yl)pyrimidin-4-yl)-5′,6′-dihydrospiro[morpholine-2,7′-pyrrolo[3,2-c]pyridin]-4′(1′H)-one] | – |
| 31.6 to 316 | ≥ 50 | Cc1cc(-c2nccc(-c3cc4c([nH]3)C3(CCNCC3)CNC4=O)n2)cc(C(C)(C)C)c1 [1—19, 2′-(2-(3-tert-butyl-5-methylphenyl)pyrimidin-4-yl)-5′,6′-dihydrospiro[piperidine-4,7′-pyrrolo[3,2-c]pyridin]-4′(1′H)-one] | – |
| 3.16 to 31.6 | ≥ 50 | CC(=O)Nc1ccc(-c2nccc(-c3cc4c([nH]3)C3(CCNCC3)CNC4=O)n2)cn1 [1—8, N-(5-(4-(4′-oxo-1′,4′,5′,6′-tetrahydrospiro[piperidine-4,7′-pyrrolo[3,2-c]pyridine]-2′-yl)pyrimidin-2-yl)pyridin-2-yl)acetamide] | – |
